In ChEMBL document CHEMBL1201862, “PubChem BioAssay data set” (2004):
Values belong to the molecule of their own block, whether it stands above or below them. The source made the active and inactive calls.

Experiments:
[1] = molecular target: Prothrombin (Bos taurus, UniProt P00735); experiment: thrombin inhibition, dose response, biochemical, fluorescence polarization, uHTS hits (AID 602369); format: functional
[2] = molecular target: T1, Rac GTPase-activating protein 1 (Homo sapiens, UniProt Q9H0H5); experiment: MgcRacGAP GTPase-activating activity inhibitors, confirmation, biochemical, ADP Hunter fluorescence, primary and confirmatory (AID 624330); format: functional
T1 sequence (Q9H0H5 whole entry): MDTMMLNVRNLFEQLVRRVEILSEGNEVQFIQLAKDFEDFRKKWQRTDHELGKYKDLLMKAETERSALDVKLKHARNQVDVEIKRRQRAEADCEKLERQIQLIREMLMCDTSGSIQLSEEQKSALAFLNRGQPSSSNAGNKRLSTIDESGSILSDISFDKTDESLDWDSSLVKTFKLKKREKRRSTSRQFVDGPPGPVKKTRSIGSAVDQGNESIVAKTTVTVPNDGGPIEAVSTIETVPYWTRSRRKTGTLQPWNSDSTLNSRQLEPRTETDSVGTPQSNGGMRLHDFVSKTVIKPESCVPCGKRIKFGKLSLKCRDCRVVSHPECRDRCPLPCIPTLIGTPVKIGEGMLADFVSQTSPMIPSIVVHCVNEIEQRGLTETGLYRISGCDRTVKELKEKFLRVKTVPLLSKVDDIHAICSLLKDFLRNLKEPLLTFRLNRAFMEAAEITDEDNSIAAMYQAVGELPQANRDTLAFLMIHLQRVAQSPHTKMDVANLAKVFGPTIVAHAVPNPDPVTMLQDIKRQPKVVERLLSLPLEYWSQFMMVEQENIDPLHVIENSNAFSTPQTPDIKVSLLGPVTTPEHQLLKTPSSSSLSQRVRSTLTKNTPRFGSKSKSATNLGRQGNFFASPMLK

[3] = molecular target: T2, Zinc finger protein mex-5 (Caenorhabditis elegans, UniProt Q9XUB2); experiment: MEX-5/TCR-2 RNA interaction inhibitors, dose response, biochemical, C. elegans, fluorescence polarization (AID 1960)
T2 sequence (Q9XUB2 whole entry): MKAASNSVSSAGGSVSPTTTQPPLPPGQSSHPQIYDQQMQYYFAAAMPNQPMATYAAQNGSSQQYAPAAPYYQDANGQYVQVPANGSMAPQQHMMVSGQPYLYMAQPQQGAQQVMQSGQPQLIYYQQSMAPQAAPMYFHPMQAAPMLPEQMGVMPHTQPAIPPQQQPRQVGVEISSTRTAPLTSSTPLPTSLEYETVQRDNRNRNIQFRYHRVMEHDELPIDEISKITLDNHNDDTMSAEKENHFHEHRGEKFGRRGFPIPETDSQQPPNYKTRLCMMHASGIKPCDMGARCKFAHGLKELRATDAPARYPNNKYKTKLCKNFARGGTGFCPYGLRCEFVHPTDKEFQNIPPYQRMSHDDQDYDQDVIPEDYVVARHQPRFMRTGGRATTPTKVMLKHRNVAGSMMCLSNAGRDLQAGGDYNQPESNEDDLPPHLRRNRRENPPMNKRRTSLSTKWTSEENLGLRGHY

[4] = molecular target: Multidrug resistance protein CDR1 (Candida albicans, UniProt P43071); experiment: CaCDR1 efflux pump inhibitors in yeast, dose response, S. cerevisiae AD1-8u, singleplex, Cherry Pick1 hits (AID 588606); format: functional
[5] = molecular target: 72 kDa type IV collagenase (Homo sapiens, UniProt P08253); experiment: Dose Response validation of uHTS RPN11 inhibitor hits using a MMP-2 Fluorescence assay.; format: functional
[6] = molecular target: Benomyl/methotrexate resistance protein (Candida albicans, UniProt P28873); experiment: CaMdr1 efflux pump inhibitor potency, dose response, singleplex, Cherry Pick1 hits (AID 588608); format: functional
[7] = molecular target: T3, RNA-binding protein pos-1 (Caenorhabditis elegans, UniProt G5EF15); experiment: inhibitors of POS-1/mex-3 RNA binding, dose response, biochemical, fluorescence polarization (AID 1964);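 further: purified POS-1 fused to maltose binding protein made in E. coli; potency of compounds blocking POS-1 binding to fluorescent RNA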
T3 sequence (G5EF15 whole entry): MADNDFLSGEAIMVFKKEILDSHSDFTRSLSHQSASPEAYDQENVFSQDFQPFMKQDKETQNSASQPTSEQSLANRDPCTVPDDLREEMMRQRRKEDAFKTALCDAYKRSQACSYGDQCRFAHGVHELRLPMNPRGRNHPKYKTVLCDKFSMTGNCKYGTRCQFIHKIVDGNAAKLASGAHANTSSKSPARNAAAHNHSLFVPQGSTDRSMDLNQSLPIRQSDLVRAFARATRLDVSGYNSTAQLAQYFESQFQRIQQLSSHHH

[8] = molecular target: 26S proteasome non-ATPase regulatory subunit 14 (Homo sapiens, UniProt O00487); experiment: inhibition of proteasome subunit RPN11 – biochemical, fluorescence polarization, uHTS hits, confirmation (AID 602368); format: functional
[9] = molecular target: DNA (cytosine-5)-methyltransferase 1 (Homo sapiens, UniProt P26358); experiment: DNMT1 methyltransferase inhibitors, confirmation, biochemical, fluorescent molecular beacon (AID 602386); format: functional
[10] = molecular target: Genome polyprotein (dengue virus type 2, UniProt P29990); experiment: Dengue-2 NS5 methyltransferase inhibitors, primary screen, biochemical, confirmation dose response (AID 588689); format: functional
[11] = molecular target: T4, Multidrug resistance protein CDR2 (Candida albicans (strain SC5314 / ATCC MYA-2876) (Yeast), UniProt P78595); experiment: CaCDR2 efflux pump inhibitors in yeast, dose response, S. cerevisiae AD1-8u, singleplex, Cherry Pick1 hits (AID 588604); format: functional
T4 sequence (P78595 whole entry): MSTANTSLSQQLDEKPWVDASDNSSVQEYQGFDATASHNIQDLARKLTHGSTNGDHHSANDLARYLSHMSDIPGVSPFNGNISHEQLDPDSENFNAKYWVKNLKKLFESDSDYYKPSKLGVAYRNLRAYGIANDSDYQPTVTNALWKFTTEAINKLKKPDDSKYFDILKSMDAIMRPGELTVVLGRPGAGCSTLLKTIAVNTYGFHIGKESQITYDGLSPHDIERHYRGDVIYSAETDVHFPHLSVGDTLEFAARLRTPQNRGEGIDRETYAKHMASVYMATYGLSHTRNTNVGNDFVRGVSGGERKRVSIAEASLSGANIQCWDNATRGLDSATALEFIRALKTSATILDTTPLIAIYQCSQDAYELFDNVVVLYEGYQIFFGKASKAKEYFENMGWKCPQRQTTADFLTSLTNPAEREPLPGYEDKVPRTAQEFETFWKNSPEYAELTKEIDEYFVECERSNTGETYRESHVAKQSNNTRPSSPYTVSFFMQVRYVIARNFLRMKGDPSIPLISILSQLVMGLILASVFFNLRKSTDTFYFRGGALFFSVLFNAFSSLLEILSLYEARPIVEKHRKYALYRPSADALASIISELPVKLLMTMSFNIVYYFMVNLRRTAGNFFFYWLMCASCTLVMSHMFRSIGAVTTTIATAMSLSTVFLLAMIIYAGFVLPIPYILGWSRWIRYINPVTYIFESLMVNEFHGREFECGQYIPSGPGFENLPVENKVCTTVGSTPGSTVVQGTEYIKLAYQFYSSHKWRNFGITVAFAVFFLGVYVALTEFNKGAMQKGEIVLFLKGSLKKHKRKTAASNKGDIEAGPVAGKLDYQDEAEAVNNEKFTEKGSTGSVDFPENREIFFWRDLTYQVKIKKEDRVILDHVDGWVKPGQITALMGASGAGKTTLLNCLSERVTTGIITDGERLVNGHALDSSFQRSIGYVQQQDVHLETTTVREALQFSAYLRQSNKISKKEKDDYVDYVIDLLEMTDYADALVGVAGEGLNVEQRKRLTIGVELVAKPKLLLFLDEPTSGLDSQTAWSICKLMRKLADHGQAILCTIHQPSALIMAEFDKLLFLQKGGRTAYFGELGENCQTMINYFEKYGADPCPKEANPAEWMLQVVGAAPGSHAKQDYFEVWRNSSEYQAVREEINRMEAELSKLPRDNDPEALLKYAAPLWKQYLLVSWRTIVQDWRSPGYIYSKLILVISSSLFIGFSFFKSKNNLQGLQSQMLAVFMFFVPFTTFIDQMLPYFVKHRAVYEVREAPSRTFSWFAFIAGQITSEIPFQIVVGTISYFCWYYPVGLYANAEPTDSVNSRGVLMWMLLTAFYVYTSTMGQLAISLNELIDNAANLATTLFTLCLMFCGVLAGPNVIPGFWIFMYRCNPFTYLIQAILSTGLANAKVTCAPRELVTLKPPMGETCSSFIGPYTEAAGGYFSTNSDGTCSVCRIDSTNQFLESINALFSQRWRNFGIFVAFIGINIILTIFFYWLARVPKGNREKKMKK

[12] = molecular target: T5, High affinity choline transporter 1 (Homo sapiens, UniProt Q9GZV3); experiment: CHT inhibitors, dose response, cell-based, 10-point CRC, membrane potential dye (AID 588401); format: functional;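 further: membrane potential dye fluorescence of choline-evoked depolarization via CHT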
T5 sequence (Q9GZV3 whole entry): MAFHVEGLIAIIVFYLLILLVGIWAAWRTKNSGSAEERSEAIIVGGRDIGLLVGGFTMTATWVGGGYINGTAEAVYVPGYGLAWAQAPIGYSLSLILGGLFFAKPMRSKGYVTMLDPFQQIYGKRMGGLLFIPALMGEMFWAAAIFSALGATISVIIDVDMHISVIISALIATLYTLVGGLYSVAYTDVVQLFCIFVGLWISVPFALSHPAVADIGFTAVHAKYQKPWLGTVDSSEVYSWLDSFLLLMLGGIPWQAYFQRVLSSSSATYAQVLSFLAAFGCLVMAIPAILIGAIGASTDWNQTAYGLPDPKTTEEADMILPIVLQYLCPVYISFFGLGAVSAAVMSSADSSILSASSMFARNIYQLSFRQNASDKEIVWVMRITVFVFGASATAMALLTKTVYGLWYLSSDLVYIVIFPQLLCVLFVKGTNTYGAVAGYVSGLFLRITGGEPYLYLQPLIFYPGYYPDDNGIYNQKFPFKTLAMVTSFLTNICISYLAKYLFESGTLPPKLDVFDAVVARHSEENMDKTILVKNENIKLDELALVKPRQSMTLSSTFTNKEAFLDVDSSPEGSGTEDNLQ

[13] = molecular target: T5, High affinity choline transporter 1; experiment: CHT inhibitors, dose response, cell-based, 5-point CRC, membrane potential dye (AID 504840); format: functional
[14] = molecular target: T6, Apoptotic protease-activating factor 1 (Homo sapiens, UniProt O14727); experiment: SAR analysis of small molecule Activators of Apaf-1 in a Fluorescent assay.; format: functional; details: read-out: EC50_Mean;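 further: caspase-3 cleavage of fluorogenic Rh110 DEVD substrate downstream of apoptosome activation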
T6 sequence (O14727 whole entry): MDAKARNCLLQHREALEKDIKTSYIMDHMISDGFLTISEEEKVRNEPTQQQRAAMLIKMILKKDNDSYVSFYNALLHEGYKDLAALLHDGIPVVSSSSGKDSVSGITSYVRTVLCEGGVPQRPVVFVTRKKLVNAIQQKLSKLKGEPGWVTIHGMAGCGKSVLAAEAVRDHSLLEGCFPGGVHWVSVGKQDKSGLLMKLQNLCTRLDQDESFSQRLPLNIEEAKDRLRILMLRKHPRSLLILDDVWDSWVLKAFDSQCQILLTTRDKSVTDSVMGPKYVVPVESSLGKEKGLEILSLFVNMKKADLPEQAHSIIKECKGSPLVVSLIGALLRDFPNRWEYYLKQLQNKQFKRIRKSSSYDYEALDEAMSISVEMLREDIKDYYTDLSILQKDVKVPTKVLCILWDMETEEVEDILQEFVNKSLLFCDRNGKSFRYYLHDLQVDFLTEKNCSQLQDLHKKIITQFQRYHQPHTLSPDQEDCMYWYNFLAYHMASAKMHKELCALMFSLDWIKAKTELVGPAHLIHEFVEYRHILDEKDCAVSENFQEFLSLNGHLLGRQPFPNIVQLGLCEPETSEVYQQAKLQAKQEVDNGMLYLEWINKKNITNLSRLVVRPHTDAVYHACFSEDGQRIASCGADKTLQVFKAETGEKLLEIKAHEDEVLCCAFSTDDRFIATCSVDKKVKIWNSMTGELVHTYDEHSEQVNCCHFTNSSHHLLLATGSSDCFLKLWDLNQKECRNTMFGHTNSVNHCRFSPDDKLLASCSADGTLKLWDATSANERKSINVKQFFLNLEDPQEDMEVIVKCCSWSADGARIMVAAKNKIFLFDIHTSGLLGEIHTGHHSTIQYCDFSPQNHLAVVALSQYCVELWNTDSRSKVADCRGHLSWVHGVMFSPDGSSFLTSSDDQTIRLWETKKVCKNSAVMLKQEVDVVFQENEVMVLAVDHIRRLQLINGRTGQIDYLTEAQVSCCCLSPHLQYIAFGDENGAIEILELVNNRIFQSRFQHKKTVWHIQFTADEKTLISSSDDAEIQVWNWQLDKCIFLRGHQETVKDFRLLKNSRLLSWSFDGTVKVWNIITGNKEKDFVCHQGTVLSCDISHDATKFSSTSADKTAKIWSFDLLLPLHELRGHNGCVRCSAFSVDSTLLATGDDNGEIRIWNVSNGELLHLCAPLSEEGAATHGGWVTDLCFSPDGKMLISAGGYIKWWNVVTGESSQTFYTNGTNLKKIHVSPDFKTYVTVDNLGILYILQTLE

72 kDa type IV collagenase, sequence (P08253 whole entry): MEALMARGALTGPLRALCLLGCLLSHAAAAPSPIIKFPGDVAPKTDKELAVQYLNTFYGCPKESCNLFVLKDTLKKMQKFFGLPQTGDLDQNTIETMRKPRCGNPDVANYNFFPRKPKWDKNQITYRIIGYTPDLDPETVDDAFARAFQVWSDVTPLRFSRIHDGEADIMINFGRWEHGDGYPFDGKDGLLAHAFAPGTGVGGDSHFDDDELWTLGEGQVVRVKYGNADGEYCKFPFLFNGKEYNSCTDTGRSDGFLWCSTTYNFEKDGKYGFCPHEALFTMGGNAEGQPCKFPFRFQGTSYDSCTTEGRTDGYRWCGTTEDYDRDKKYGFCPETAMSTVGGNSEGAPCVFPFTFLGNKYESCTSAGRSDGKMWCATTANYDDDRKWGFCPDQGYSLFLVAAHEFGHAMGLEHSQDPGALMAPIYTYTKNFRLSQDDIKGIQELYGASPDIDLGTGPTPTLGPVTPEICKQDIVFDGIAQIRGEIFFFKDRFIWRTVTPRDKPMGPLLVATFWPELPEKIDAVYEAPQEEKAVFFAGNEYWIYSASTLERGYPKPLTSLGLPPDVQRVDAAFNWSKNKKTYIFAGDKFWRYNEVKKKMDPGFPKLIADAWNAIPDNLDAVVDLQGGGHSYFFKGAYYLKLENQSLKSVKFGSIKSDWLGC
Multidrug resistance protein CDR1, sequence (P43071 whole entry, looked up): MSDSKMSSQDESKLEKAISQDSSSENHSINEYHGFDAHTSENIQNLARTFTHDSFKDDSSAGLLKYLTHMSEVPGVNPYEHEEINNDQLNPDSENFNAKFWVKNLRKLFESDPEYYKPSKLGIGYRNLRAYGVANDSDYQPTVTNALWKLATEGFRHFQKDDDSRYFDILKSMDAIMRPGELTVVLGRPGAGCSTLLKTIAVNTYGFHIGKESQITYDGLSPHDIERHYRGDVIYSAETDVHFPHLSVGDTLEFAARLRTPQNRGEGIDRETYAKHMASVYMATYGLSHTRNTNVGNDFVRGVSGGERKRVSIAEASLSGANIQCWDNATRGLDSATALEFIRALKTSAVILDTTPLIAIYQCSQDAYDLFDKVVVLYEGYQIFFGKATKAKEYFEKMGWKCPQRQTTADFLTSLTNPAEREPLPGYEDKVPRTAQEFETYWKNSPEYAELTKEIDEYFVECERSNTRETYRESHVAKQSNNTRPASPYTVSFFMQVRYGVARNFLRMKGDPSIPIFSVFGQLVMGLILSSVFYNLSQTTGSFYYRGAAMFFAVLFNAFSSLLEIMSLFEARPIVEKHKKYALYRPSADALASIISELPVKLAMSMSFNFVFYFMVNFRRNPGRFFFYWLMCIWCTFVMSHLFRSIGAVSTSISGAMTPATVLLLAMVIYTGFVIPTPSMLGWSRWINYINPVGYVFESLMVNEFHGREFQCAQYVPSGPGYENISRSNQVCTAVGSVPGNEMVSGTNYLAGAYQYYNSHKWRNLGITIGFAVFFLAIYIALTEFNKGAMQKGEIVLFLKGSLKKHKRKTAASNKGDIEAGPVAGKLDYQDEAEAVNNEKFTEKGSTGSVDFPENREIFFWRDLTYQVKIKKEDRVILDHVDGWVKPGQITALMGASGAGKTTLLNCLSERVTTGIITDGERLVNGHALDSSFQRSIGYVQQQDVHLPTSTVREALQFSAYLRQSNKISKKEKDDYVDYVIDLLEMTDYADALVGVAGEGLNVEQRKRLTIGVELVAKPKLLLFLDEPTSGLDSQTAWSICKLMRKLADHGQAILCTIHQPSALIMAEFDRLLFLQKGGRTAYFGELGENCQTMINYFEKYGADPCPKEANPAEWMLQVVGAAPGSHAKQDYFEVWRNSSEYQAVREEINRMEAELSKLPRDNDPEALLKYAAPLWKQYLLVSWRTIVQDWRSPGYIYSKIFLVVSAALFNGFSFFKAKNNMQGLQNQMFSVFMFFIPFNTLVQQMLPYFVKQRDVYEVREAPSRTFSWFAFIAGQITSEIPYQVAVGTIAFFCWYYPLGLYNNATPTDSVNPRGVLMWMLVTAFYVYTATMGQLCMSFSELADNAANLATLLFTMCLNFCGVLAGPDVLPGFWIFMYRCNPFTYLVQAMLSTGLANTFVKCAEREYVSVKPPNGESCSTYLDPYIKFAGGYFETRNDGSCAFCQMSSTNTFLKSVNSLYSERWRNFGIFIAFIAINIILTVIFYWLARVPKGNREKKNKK
Genome polyprotein, sequence (P29990 2492-3391 limits assumed): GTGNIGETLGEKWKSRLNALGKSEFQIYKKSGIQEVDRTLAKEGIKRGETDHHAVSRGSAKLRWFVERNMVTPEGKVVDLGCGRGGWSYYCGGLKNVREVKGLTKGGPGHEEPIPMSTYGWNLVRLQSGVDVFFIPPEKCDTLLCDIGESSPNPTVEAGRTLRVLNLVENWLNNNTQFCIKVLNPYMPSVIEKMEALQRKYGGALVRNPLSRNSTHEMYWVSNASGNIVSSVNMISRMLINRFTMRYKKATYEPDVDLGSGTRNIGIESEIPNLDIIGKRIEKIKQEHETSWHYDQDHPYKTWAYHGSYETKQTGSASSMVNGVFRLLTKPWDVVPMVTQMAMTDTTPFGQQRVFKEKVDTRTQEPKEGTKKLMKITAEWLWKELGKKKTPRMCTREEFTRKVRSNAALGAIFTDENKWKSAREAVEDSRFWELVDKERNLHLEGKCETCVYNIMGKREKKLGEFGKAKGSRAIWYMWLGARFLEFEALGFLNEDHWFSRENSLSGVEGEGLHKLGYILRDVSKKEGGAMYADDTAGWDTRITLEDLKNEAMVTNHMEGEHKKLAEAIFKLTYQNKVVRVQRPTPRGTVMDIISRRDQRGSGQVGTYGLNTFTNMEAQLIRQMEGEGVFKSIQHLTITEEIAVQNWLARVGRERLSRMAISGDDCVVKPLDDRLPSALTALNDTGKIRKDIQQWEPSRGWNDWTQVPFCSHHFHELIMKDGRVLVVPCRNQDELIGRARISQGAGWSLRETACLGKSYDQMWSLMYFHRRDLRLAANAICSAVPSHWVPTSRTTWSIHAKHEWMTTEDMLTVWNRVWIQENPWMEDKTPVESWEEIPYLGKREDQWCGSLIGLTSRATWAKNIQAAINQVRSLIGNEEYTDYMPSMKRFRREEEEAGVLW
DNA (cytosine-5)-methyltransferase 1, sequence (P26358 whole entry): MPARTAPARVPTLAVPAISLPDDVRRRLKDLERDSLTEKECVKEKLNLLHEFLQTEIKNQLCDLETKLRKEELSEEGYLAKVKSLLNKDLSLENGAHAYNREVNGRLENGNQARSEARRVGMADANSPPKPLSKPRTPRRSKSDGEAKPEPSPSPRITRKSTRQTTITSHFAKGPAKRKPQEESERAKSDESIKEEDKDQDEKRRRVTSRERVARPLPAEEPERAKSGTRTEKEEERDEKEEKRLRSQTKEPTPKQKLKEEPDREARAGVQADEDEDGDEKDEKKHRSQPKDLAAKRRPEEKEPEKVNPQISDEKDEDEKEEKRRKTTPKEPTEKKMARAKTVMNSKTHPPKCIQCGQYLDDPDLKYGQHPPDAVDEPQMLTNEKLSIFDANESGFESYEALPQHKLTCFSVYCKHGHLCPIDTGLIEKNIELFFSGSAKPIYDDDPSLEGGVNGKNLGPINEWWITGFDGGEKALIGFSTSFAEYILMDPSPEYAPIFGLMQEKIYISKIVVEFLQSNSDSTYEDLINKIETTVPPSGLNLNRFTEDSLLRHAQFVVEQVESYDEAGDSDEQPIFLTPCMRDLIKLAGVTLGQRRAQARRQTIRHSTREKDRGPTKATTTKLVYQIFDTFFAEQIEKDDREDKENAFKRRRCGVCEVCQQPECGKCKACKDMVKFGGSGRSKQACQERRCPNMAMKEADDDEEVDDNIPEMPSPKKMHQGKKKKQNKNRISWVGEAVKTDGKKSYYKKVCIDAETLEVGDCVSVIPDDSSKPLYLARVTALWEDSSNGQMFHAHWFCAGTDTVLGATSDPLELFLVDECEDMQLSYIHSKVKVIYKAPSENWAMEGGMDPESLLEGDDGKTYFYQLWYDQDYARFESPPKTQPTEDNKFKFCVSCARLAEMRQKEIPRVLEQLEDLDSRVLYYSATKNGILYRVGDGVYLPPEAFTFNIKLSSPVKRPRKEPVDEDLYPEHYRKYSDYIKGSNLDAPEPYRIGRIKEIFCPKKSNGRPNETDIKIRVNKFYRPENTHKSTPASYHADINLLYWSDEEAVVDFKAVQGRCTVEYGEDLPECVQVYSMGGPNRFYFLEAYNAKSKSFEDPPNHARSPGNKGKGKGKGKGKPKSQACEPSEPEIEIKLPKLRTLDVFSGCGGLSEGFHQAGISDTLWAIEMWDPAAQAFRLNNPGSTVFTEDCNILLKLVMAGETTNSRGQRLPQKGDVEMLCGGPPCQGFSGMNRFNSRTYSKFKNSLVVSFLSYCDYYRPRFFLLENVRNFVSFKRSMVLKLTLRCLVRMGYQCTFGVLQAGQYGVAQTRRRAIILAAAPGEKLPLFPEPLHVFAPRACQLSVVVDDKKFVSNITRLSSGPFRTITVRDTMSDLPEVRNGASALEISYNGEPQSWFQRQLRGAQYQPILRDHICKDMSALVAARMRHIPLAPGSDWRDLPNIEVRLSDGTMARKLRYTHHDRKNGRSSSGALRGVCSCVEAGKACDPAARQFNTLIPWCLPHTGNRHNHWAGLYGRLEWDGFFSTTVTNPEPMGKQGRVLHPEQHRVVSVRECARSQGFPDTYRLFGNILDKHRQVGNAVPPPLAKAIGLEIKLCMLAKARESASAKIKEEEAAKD
26S proteasome non-ATPase regulatory subunit 14, sequence (O00487 whole entry): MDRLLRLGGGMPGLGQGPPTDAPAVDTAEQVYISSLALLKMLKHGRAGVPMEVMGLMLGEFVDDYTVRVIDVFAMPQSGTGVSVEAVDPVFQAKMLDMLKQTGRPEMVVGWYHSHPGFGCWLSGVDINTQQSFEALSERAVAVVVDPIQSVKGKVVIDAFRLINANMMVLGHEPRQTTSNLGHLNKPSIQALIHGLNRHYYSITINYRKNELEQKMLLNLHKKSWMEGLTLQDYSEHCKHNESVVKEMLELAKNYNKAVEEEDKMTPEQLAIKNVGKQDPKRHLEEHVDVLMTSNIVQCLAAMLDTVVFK

SMILES: O=C(O)CCN1C(=O)/C(=C/c2ccc(-c3nc4ccccc4s3)o2)SC1=S
IC50 [1]: 5.11 µM (active)
IC50 [2]: 30.6 µM (active)
EC50 [3]: 21.8 µM (active)
EC50 [4]: 11.2 µM (active)
IC50 [5]: > 100 µM (inactive)
EC50 [6]: 0.102 µM (active)
EC50 [7]: 32.3 µM (active)
IC50 [8]: 2.93 µM (active)
IC50 [9]: 4.66 µM (active)
IC50 [10]: > 100 µM (active)
EC50 [11]: 12.1 µM (active)

IC50 [12]: 4.47 µM (active)
IC50 [13]: 8.38 µM (active)
SMILES: CCc1cc(C(=O)Cc2ccc(F)cc2)c(O)cc1O

IC50 [12]: 2.38 µM (active)
IC50 [13]: 4.47 µM (active)
SMILES: COc1ccc(C(=O)NCc2cnn(C)c2C)cc1OC1CCN(C(C)C)CC1

EC50 [14]: > 100 µM (inactive)
SMILES: COc1ccc(Cl)cc1NC(=O)CCS(=O)(=O)c1cc2c(cc1Br)CCN2C(C)=O
